Data on 23 molecules can be found in patent US20200157092A1, “[1,2,4]-TRIAZOLO [1,5-A]-PYRIMIDINYL DERIVATIVES SUBSTITUTED WITH PIPERIDINE, […] […] OGA INHIBITORS” (priority 2017, published 2020).

The target of one assay is T1, OGA (Homo sapiens, UniProt O60502).
T1 construct: HEK293 cells inducible for P301L mutant human Tau (isoform 2N4R) were established at Janssen; endogenous in cells; host or cells: HEK293 cells inducible for P301L mutant human Tau (2N4R)
T1 sequence (O60502 1-916): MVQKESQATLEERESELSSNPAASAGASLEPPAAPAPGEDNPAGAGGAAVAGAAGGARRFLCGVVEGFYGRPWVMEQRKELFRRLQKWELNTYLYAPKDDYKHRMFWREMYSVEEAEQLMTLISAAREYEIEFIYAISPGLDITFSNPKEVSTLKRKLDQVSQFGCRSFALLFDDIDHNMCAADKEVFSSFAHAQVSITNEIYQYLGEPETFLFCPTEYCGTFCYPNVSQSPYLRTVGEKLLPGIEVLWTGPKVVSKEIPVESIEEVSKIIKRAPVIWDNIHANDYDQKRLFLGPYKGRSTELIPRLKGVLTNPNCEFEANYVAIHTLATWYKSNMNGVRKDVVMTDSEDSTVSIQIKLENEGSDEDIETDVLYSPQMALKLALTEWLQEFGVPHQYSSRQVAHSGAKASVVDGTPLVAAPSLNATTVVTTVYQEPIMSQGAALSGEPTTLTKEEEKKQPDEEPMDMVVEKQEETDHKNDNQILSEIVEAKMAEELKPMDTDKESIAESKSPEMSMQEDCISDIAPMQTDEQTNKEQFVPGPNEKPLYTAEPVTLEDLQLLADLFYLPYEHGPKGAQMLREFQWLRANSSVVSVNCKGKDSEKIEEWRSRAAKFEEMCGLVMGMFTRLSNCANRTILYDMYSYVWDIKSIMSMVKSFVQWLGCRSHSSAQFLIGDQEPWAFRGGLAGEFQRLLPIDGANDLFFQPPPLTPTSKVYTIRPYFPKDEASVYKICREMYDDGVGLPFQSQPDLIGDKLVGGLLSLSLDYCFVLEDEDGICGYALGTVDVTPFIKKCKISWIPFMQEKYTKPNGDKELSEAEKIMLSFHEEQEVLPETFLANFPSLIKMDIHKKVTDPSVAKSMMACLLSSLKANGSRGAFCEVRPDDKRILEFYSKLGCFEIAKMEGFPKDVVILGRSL
The assay can be described thus: OGA cellular assay: immunocytochemical detection of O-GlcNAcylated proteins in HEK293 cells inducible for P301L mutant human Tau. The conditions noted are these: for Emax: HEK293, read-out: Cellular Emax (%); for Cellular hOGA; pEC50 / Cellular Emax (%): HEK293 cells inducible for P301L mutant human Tau, 6 hours incubation; for Cellular Emax (%): maximum = Thiamet G 200 uM. Type of assay: cell-based. The text has this:
HEK293 cells inducible for P301L mutant human Tau (isoform 2N4R) were established at Janssen. Thiamet-G was used for both plate validation (high control) and as reference compound (reference EC50 assay validation). […] Inhibition of OGA will result in an increase of O-GlcNAcylated protein levels resulting in an increased signal in the experiment. […] ICC pictures are imaged with a Perkin Elmer Opera Phenix plate microscope and quantified with the provided software Perkin Elmer Harmony 4.1.
Cells were propagated in DMEM high Glucose (Sigma, # D5796) following standard procedures. […] At the day of compound test medium from assay plates was removed and replenished with 90 μl of fresh Assay Medium. 10 μl of compounds at a 10 fold final concentration were added to the wells. Plates were centrifuged shortly before incubation in the cell incubator for 6 hours. DMSO concentration was set to 0.2%. Medium is discarded by applying vacuum. For staining of cells medium was removed and cells washed once with 100 μl D-PBS (Sigma, # D8537). From next step onwards unless other stated assay volume was always 50 μl and incubation was performed without agitation and at room temperature. […] Before analysis samples were washed 2 times manually for 5 minutes in ICC base buffer.
Imaging is performed using Perkin Elmer Phenix Opera using a water 20× objective and recording 9 fields per well. Intensity readout at 488 nm is used as a measure of O-GlcNAcylation level of total proteins in wells. To assess potential toxicity of compounds nuclei were counted using the Hoechst staining. IC50-values are calculated using parametric non-linear regression model fitting. As a maximum inhibition Thiamet G at a 200 uM concentration is present on each plate. In addition, a concentration response of Thiamet G is calculated on each plate.

The target of assay [1] is T2, recombinant human Meningioma Expressed Antigen 5 (MGEA5), also referred to as O-GlcNAcase (OGA) (Homo sapiens, UniProt O60502).
T2 construct: Full length OGA enzyme was purchased at OriGene (cat # TP322411); purchased OriGene TP322411
T2 sequence (O60502 1-916): T1 sequence (O60502 1-916)
The experiment in a line: OGA biochemical assay: inhibition of FM-GlcNAc hydrolysis, fluorescence; protocol A (10 nM OGA, 1 h) or protocol B (2 nM OGA, 6 h). To be noted: Enzymatic protocol B (2 nM OGA, 6 h); for IC50: read-out: Enzymatic hOGA, pIC50 (converted). As for the experimental part: The hydrolysis FM-GlcNAc (Marker Gene technologies, cat # M1485) results in the formation of ß-D-N-glucosamineacetate and fluorescein. The fluorescence of the latter can be measured at excitation wavelength 485 nm and emission wavelength 538 nm. An increase in enzyme activity results in an increase in fluorescence signal. Full length OGA enzyme was purchased at OriGene (cat # TP322411). The enzyme was stored in 25 mM Tris.HCl, pH 7.3, 100 mM glycine, 10% glycerol at −20° C. […] The assay was performed in 200 mM Citrate/phosphate buffer supplemented with 0.005% Tween-20. 35.6 g Na2HPO4 2 H2O (Sigma, # C0759) were dissolved in 1 L water to obtain a 200 mM solution. […] The buffer to stop the reaction consists of a 500 mM Carbonate buffer, pH 11.0. […] OGA was used at a 10 nM (protocol A) or 2 nM (protocol B) concentration and FM-GlcNAc at a 100 uM final concentration. Dilutions were prepared in assay buffer.
Plates were pre-incubated for 60 min at room temperature and then 2 μl FM-GlcNAc substrate mix added. […] Plates were briefly centrifuged for 1 min at 1000 rpm and incubate at room temperature for 1 h (10 nM OGA, protocol A) or 6 h (2 nM OGA, protocol B). To stop the reaction 5 μl STOP buffer were added and plates centrifuge again 1 min at 1000 rpm. Fluorescence was quantified in the Thermo Scientific Fluoroskan Ascent or the PerkinElmer EnVision with excitation wavelength 485 nm and emission wavelength 538 nm.
For analysis a best-fit curve is fitted by a minimum sum of squares method. From this an IC50 value and Hill coefficient was obtained. High control (no inhibitor) and low control (saturating concentrations of standard inhibitor) were used to define the minimum and maximum values.

Structures are written as SMILES.

The term EC50 denotes the concentration giving half of the maximal effect. A higher EC50 goes with a need for much substance. Usually Emax stands for the maximal effect, on the per cent scale that the assay sets. `CC(=O)Nc1ncc(CN2CCCC(c3cc(C)nc4nccn34)C2)s1` (centres unmarked) [Product 17]: on OGA, a half-maximal response (EC50) required 55 nM and the Emax stood at 106%. Besides, in assay [1], the Emax is 101% and the IC50 was 8.51 nM.
Turning to `CC(=O)Nc1ncc(CN2CCCC(c3cc4ccn(C)c4nc3C)C2)s1` (centres unmarked) [Product 101], on OGA, the EC50 is 9.33 nM and the Emax was determined as 114%. Also, in assay [1], the Emax came to 102% and the IC50 is 6.61 nM.
Take `CC(=O)Nc1ncc(CN2CCCC(c3nc(C)cc4ccn(C)c34)C2)s1` (centres unmarked) [Product 88]: on OGA, the EC50 was 407 nM and the Emax was found to be 57.4%. In addition, in assay [1], the Emax turned out to be 101% and the IC50 is 83.2 nM.
For the molecule `CC(=O)Nc1ncc(CN2CCCC(Cc3cncc4nccn34)C2)s1` (centres unmarked) [Product 45], at OGA, the EC50 was 13.5 nM and the Emax stood at 96.9%. In assay [1], the Emax turned out to be 100% and the IC50 was 4.68 nM.
As to `CC(=O)Nc1ncc(CN2CCCC(c3nc(C)cc4cc[nH]c34)C2)s1` (centres unmarked) [Product 93], on OGA, the “Cellular hOGA; pEC50” value came out at 7.61 and the “Cellular Emax (%)” value is recorded as 87.83%. In assay [1], the “Enzymatic Emax (%)” value was 101.08% and the “Enzymatic hOGA; pIC50” value is 7.35.
Regarding `CC(=O)Nc1ncc(CN2CCC(Cc3cccc4nccn34)C2)s1` (centres unmarked) [Product 50], on OGA, the EC50 is 33.9 nM and the Emax turned out to be 103%. Moreover, in assay [1], the Emax turned out to be 99.6% and the IC50 was 9.33 nM.
Turning to `CC(=O)Nc1ncc(CN2CC[C@H](Cc3cccc4nccn34)C2)s1` [Product 107], on OGA, the EC50 was 55 nM and the Emax was 82%. Moreover, in assay [1], the Emax is 101% and the IC50 was 8.13 nM.
Turning to `CC(=O)Nc1ncc(CN2CCCC(c3cnc4cc[nH]c4c3)C2)s1` (racemic) [Product 26], at OGA, the midpoint of the response, the EC50, lay at 24 nM and the Emax was found to be 99%. For the same molecule, in assay [1], the Emax worked out at 123% and the IC50 is 40.7 nM.
For `CC(=O)Nc1ncc(CN2CCC[C@@H](c3cnc4ccn(C)c4c3)C2)s1` (single isomer, unassigned) [Product 79], at OGA, the “Cellular hOGA; pEC50” value is 7.87 and the “Cellular Emax (%)” value was found to be 101.35%. Besides, in assay [1], the “Enzymatic Emax (%)” value is 102.15% and the “Enzymatic hOGA; pIC50” value is listed as 8.14.
For `CC(=O)Nc1ncc(CN2CCCC(c3nc(C)cc4cc[nH]c34)C2)s1` (centres unmarked) [Product 91], at OGA, the EC50 was 44.7 nM and the Emax turned out to be 84.3%. In assay [1], the Emax was 103% and the IC50 is 95.5 nM.
In the case of `c1cc(CC2CCN(Cc3ccc4nccnc4c3)C2)n2ccnc2c1` (centres unmarked) [Product 58], at OGA, the EC50 is over 10000 nM and the Emax was 4.1%. In assay [1], the maximum response (Emax) was determined as 97.3% and the IC50 is 245 nM.
Consider `CC(=O)Nc1ncc(CN2CCCC(Cc3cc(C)nc4ncnn34)C2)s1` (centres unmarked) [Product 46], for which, at OGA, the EC50 was 14.8 nM and the Emax is 114%. In assay [1], the Emax turned out to be 99.8% and the IC50 is 2.34 nM.
For `CC(=O)Nc1ncc(CN2CCCC(Cc3cccc4nccn34)C2)s1` (centres unmarked) [Product 66], on OGA, the EC50 was 18.2 nM and the Emax came out at 97.3%. Besides, in assay [1], the Emax stood at 101% and the IC50 is 29.5 nM.
Take `CC(c1ccc2c(c1)OCO2)N1CCOC(c2ccnc3ncnn23)C1` (centres unmarked) [Product 55]: on OGA, the EC50 is over 10000 nM and the Emax was 1.01%. Moreover, in assay [1], the maximal response (Emax) was 51.8% and the IC50 was 9550 nM.
For the molecule `CC(=O)Nc1ncc(CN2CCC(Cc3c(F)c(C)nc4ncnn34)C2)s1` (centres unmarked) [Product 49], on OGA, the midpoint of the response, the EC50, lay at 25.7 nM and the Emax stood at 105%. Besides, in assay [1], the Emax was 101% and the IC50 is 1.74 nM.
As for `CC(=O)Nc1ncc(CN2CCCC(Cc3c(F)c(C)nc4ncnn34)C2)s1` (centres unmarked) [Product 47], at OGA, the EC50 was 15.5 nM and the Emax was found to be 109%. Further, in assay [1], the Emax is 102% and the IC50 is 1.26 nM.
Regarding `CC(=O)Nc1ncc(CN2CCC[C@H](c3cnc4cc[nH]c4c3)C2)s1` (single isomer, unassigned) [Product 80], at OGA, the “Cellular hOGA; pEC50” value amounted to 7.72 and the “Cellular Emax (%)” value worked out at 109.88%. Also, in assay [1], the “Enzymatic Emax (%)” value is 99.58% and the “Enzymatic hOGA; pIC50” value amounted to 7.69.
As to `CC(=O)Nc1ncc(CN2CCCC(c3cc(C)nc4ccn(C)c34)C2)s1` (centres unmarked) [Product 86], at OGA, the “Cellular hOGA; pEC50” value worked out at 7.18 and the “Cellular Emax (%)” value was 100.91%. Moreover, in assay [1], the “Enzymatic Emax (%)” value stood at 102.93% and the “Enzymatic hOGA; pIC50” value is 8.38.
In the case of `CC(=O)Nc1ncc(CN2CCCC(c3ccnc4nccn34)C2)s1` (racemic) [Product 10], at OGA, the response was half-maximal at 209 nM (EC50) and the Emax is 99%. Besides, in assay [1], the Emax came out at 100% and the IC50 was 35.5 nM.
In the case of `CC(=O)Nc1ncc(CN2CCCC(Cc3cnc4cc[nH]c4c3)C2)s1` (centres unmarked) [Product 97], on OGA, it took 7.76 nM to reach a half-maximal effect (EC50) and the Emax came to 109%. In addition, in assay [1], the Emax came out at 102% and the IC50 was 1.74 nM.
Take `Cc1cc(C2CCCN(C(C)c3ccc4c(c3)OCO4)C2)n2ccnc2n1` (centres unmarked) [Product 52]: at OGA, the EC50 was 2630 nM and the Emax was found to be 131%. In assay [1], the Emax was found to be 101% and the IC50 is 18.6 nM.
The corresponding values for `CC(=O)Nc1ncc(CN2CCCC(c3ccc4c(ccn4C)n3)C2)s1` (centres unmarked) [Product 100] are 195 nM, 85.7%, 98.5% and 309 nM.
With `CC(=O)Nc1ncc(CN2CCCC(Cc3cc(C)nc4ccnn34)C2)s1` (centres unmarked) [Product 44], at OGA, a half-maximal response (EC50) required 35.5 nM and the Emax was found to be 129%. Besides, in assay [1], the Emax was determined as 101% and the IC50 was 3.8 nM.
